Results reported in the supplement of paper PMC10307832.

Columns and labels:
Assay in all cases: relative viability (nuclei count vs DMSO), 5 days (fraction); higher = more cells survive
NCI-H1651 = tested on: NCI-H1651
Procedure, shortened: (§1)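 After 5 days of treatment, lung cancer cells in 1536-well plates were fixed and stained in a single step (final 0.05% Triton X-100, 1% formaldehyde, 1 ug/ml Hoechst) and their nuclei counted on 4× images. Treatment had been applied by pin tool the day after seeding as one drug alone or as a fixed anchor-drug dose with five library-drug doses (not always all listed) in √10 steps. Relative viability is the nuclei count of treated wells divided by that of vehicle wells, and values are medians of duplicate plates.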

HCC-15 = tested on: HCC-15
Procedure, shortened: as §1

BEN = tested on: BEN
Procedure, shortened: as §1

201T = tested on: 201T
Procedure, shortened: as §1

NCI-H322M = tested on: NCI-H322M
Procedure, shortened: as §1

RERF-LC-KJ = tested on: RERF-LC-KJ
Procedure, shortened: as §1

HARA = tested on: HARA
Procedure, shortened: as §1

COR-L 105 = tested on: COR-L 105
Procedure, shortened: as §1

NCI-H1437 = tested on: NCI-H1437
Procedure, shortened: as §1

NCI-H2405 = tested on: NCI-H2405
Procedure, shortened: as §1

NCI-H2085 = tested on: NCI-H2085
Procedure, shortened: as §1

LCLC-103H = tested on: LCLC-103H
Procedure, shortened: as §1

LK-2 = tested on: LK-2
Procedure, shortened: as §1

LU99A = tested on: LU99A
Procedure, shortened: as §1

LC-2-ad = tested on: LC-2-ad
Procedure, shortened: as §1

CAL-12T = tested on: CAL-12T
Procedure, shortened: as §1

H3255 = tested on: H3255
Procedure, shortened: as §1

HCC-827 = tested on: HCC-827
Procedure, shortened: as §1

UMC-11 = tested on: UMC-11
Procedure, shortened: as §1

NCI-H23 = tested on: NCI-H23
Procedure, shortened: as §1

LXF-289 = tested on: LXF-289
Procedure, shortened: as §1

NCI-H2228 = tested on: NCI-H2228
Procedure, shortened: as §1

Compound: O=C(O)CCCCC(CCSCc1ccccc1)SCc1ccccc1 (stereo not drawn) [CPI-613] + COc1cc2c(Oc3ccc(NC(=O)C4(C(=O)Nc5ccc(F)cc5)CC4)cc3F)ccnc2cc1OCCCN1CCOCC1 [Foretinib] (partner 0.25 µM)
- relative viability (NCI-H1651; first compound 5 µM): 0.794
- relative viability (NCI-H1651; first compound 15.81 µM): 0.838
- relative viability (NCI-H1651; first compound 50 µM): 0.974
- relative viability (NCI-H1651; first compound 158.11 µM): 0.295
- relative viability (NCI-H1651; first compound 500 µM): 0.088
- relative viability (HCC-15; first compound 5 µM): 0.974
- relative viability (HCC-15; first compound 15.81 µM): 1
- relative viability (HCC-15; first compound 50 µM): 1.01
- relative viability (HCC-15; first compound 158.11 µM): 0.236
- relative viability (HCC-15; first compound 500 µM): 0.039
- relative viability (BEN; first compound 5 µM): 0.728
- relative viability (BEN; first compound 15.81 µM): 0.443
- relative viability (BEN; first compound 50 µM): 0.602
- relative viability (BEN; first compound 158.11 µM): 0.499
- relative viability (BEN; first compound 500 µM): 0.508
- relative viability (201T; first compound 5 µM): 1.12
- relative viability (201T; first compound 15.81 µM): 1.03
- relative viability (201T; first compound 50 µM): 1.11
- relative viability (201T; first compound 158.11 µM): 0.329
- relative viability (201T; first compound 500 µM): 0.0557
- relative viability (NCI-H322M; first compound 5 µM): 0.969
- relative viability (NCI-H322M; first compound 15.81 µM): 0.972
- relative viability (NCI-H322M; first compound 50 µM): 1.04
- relative viability (NCI-H322M; first compound 158.11 µM): 0.689
- relative viability (NCI-H322M; first compound 500 µM): 0.0324
- relative viability (RERF-LC-KJ; first compound 5 µM): 0.878
- relative viability (RERF-LC-KJ; first compound 15.81 µM): 0.763
- relative viability (RERF-LC-KJ; first compound 50 µM): 0.889
- relative viability (RERF-LC-KJ; first compound 158.11 µM): 0.882
- relative viability (RERF-LC-KJ; first compound 500 µM): 0.851
- relative viability (HARA; first compound 15.81 µM): 0.778
- relative viability (HARA; first compound 50 µM): 0.923
- relative viability (HARA; first compound 158.11 µM): 0.51
- relative viability (HARA; first compound 500 µM): 0.0068
- relative viability (COR-L 105; first compound 5 µM): 1.11
- relative viability (COR-L 105; first compound 15.81 µM): 1.03
- relative viability (COR-L 105; first compound 50 µM): 1.02
- relative viability (COR-L 105; first compound 158.11 µM): 0.508
- relative viability (COR-L 105; first compound 500 µM): 0.16
- relative viability (NCI-H1437; first compound 5 µM): 1.22
- relative viability (NCI-H1437; first compound 15.81 µM): 1.23
- relative viability (NCI-H1437; first compound 50 µM): 1.29
- relative viability (NCI-H1437; first compound 158.11 µM): 0.426
- relative viability (NCI-H1437; first compound 500 µM): 0.0461
- relative viability (NCI-H2405; first compound 5 µM): 1.08
- relative viability (NCI-H2405; first compound 15.81 µM): 1.03
- relative viability (NCI-H2405; first compound 50 µM): 0.995
- relative viability (NCI-H2405; first compound 158.11 µM): 0.93
- relative viability (NCI-H2405; first compound 500 µM): 0.876
- relative viability (NCI-H2085; first compound 5 µM): 0.767
- relative viability (NCI-H2085; first compound 15.81 µM): 0.927
- relative viability (NCI-H2085; first compound 50 µM): 0.933
- relative viability (NCI-H2085; first compound 158.11 µM): 0.286
- relative viability (NCI-H2085; first compound 500 µM): 0.0979
- relative viability (LCLC-103H; first compound 5 µM): 0.744
- relative viability (LCLC-103H; first compound 15.81 µM): 0.757
- relative viability (LCLC-103H; first compound 50 µM): 0.805
- relative viability (LCLC-103H; first compound 158.11 µM): 0.174
- relative viability (LCLC-103H; first compound 500 µM): 0.243
- relative viability (LK-2; first compound 5 µM): 1.45
- relative viability (LK-2; first compound 15.81 µM): 1.18
- relative viability (LK-2; first compound 50 µM): 1.16
- relative viability (LK-2; first compound 158.11 µM): 1.06
- relative viability (LK-2; first compound 500 µM): 0.126
- relative viability (LU99A; first compound 5 µM): 0.83
- relative viability (LU99A; first compound 15.81 µM): 0.776
- relative viability (LU99A; first compound 50 µM): 0.733
- relative viability (LU99A; first compound 158.11 µM): 0.461
- relative viability (LU99A; first compound 500 µM): 0.112
- relative viability (LC-2-ad; first compound 5 µM): 0.842
- relative viability (LC-2-ad; first compound 15.81 µM): 0.796
- relative viability (LC-2-ad; first compound 50 µM): 0.957
- relative viability (LC-2-ad; first compound 158.11 µM): 0.434
- relative viability (LC-2-ad; first compound 500 µM): 0.0582
- relative viability (CAL-12T; first compound 5 µM): 0.981
- relative viability (CAL-12T; first compound 15.81 µM): 0.89
- relative viability (CAL-12T; first compound 50 µM): 1.11
- relative viability (CAL-12T; first compound 158.11 µM): 0.142
- relative viability (CAL-12T; first compound 500 µM): 0.015
- relative viability (H3255; first compound 5 µM): 0.887
- relative viability (H3255; first compound 15.81 µM): 0.685
- relative viability (H3255; first compound 50 µM): 0.89
- relative viability (H3255; first compound 500 µM): 0.785
- relative viability (HCC-827; first compound 5 µM): 1.04
- relative viability (HCC-827; first compound 15.81 µM): 1.02
- relative viability (HCC-827; first compound 50 µM): 1
- relative viability (HCC-827; first compound 158.11 µM): 0.416
- relative viability (HCC-827; first compound 500 µM): 0.312
- relative viability (UMC-11; first compound 5 µM): 0.992
- relative viability (UMC-11; first compound 15.81 µM): 1.04
- relative viability (UMC-11; first compound 50 µM): 0.995
- relative viability (UMC-11; first compound 158.11 µM): 0.169
- relative viability (UMC-11; first compound 500 µM): 0.131
- relative viability (NCI-H23; first compound 5 µM): 1.03
- relative viability (NCI-H23; first compound 15.81 µM): 0.917
- relative viability (NCI-H23; first compound 50 µM): 0.985
- relative viability (NCI-H23; first compound 158.11 µM): 0.402
- relative viability (NCI-H23; first compound 500 µM): 0.0153
- relative viability (LXF-289; first compound 5 µM): 0.974
- relative viability (LXF-289; first compound 15.81 µM): 0.919
- relative viability (LXF-289; first compound 50 µM): 0.898
- relative viability (LXF-289; first compound 158.11 µM): 0.226
- relative viability (LXF-289; first compound 500 µM): 0.0507
- relative viability (NCI-H2228; first compound 5 µM): 0.719
- relative viability (NCI-H2228; first compound 15.81 µM): 0.948
- relative viability (NCI-H2228; first compound 50 µM): 0.78
- relative viability (NCI-H2228; first compound 158.11 µM): 0.332
- relative viability (NCI-H2228; first compound 500 µM): 0.088
